Series [1] has as its target Metabotropic glutamate receptor 5 (Homo sapiens, UniProt P41594). The experiment in a line: Activity at human mGluR5d assessed as inhibition of glutamate-induced calcium influx by FLIPR assay. Type of series: functional.
Series [2] deals with Metabotropic glutamate receptor 8 (Homo sapiens) (UniProt O00222). The experiment in a line: Activity at human mGluR8 assessed as inhibition of glutamate-induced calcium influx by FLIPR assay. Type of series: functional.
The target of series [3] is Metabotropic glutamate receptor 4 (Homo sapiens) (UniProt Q14833). The experiment in a line: Activity at human mGluR4 assessed as inhibition of glutamate-induced calcium influx by FLIPR assay. It is filed as functional.
Metabotropic glutamate receptor 4 (Homo sapiens), sequence (Q14833 whole entry): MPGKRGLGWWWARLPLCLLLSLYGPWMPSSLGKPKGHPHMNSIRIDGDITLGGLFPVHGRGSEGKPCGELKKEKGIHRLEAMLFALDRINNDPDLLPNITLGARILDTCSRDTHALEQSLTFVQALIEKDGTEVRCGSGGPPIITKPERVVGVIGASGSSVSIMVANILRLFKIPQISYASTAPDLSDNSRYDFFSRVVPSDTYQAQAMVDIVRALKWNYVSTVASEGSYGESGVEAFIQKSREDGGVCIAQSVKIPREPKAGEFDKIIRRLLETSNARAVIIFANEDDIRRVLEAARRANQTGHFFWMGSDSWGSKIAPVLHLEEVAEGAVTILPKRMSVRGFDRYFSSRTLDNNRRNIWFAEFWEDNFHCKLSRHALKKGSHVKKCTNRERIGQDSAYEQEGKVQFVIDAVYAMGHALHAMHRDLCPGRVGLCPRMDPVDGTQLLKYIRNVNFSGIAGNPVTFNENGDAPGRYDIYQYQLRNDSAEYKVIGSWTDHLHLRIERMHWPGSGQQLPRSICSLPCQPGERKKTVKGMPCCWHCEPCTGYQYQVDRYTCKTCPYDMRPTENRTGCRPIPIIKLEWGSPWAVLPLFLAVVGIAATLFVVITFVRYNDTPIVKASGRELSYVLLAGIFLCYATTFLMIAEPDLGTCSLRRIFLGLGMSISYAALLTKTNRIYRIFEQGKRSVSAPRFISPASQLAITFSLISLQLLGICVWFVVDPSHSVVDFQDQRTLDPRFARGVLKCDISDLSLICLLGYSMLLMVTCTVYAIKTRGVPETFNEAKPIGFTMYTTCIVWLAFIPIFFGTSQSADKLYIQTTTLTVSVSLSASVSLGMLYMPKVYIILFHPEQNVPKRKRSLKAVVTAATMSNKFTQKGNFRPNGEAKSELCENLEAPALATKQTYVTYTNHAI
The target in series [4] is Metabotropic glutamate receptor 3 (Homo sapiens) (UniProt Q14832). The experiment in a line: Activity at human mGluR3 assessed as inhibition of glutamate-induced calcium influx by FLIPR assay. It is filed as functional.
Metabotropic glutamate receptor 3 (Homo sapiens), sequence (Q14832 23-879 limits assumed): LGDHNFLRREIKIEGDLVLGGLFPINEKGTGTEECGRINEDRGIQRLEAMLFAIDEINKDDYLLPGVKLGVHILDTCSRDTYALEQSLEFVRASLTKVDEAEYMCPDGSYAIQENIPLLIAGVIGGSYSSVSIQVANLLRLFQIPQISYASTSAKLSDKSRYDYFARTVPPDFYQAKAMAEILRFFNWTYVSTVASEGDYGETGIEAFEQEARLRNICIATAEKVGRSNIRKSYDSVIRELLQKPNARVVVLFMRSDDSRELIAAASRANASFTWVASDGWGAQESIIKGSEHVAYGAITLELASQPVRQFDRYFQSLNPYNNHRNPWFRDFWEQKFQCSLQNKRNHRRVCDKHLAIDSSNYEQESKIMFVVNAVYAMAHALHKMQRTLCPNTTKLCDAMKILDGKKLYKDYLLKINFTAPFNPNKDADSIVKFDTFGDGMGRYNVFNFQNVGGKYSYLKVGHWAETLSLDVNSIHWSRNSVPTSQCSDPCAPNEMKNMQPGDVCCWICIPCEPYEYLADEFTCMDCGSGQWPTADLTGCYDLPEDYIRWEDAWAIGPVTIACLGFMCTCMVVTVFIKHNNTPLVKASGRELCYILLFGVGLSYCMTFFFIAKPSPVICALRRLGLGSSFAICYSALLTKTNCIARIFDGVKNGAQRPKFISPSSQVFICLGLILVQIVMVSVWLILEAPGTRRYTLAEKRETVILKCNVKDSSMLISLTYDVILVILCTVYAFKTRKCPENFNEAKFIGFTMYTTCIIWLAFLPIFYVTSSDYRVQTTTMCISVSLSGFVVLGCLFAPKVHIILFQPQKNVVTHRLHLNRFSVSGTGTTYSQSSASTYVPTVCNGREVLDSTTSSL
Series [5] has as its target Metabotropic glutamate receptor 1 (Homo sapiens) (UniProt Q13255). The series can be described thus: Activity at human mGluR1 assessed as inhibition of glutamate-induced calcium influx by FLIPR assay. It is filed as functional.
Series [6] has as its system Canis familiaris. The series can be described thus: Inhibition of transient lower esophageal sphincter relaxation in dog at 3.9 umol/kg, iv. Type of series: functional, Canis lupus familiaris. Further details: scale not given: the % may be the effect or the level left.
The nature of series [7]: Volume of distribution in dog. It is filed as ADME, organism-based, Canis lupus familiaris. The settings on record: in vivo, read-out: Vss.
Series [8] can be described thus: Half life in dog. It is filed as ADME, organism-based, Canis lupus familiaris. The settings on record: in vivo.
Series [9] is described as follows: Intrinsic clearance in rat liver microsomes. It is filed as ADME, Microsome.
Series [10] can be described thus: Clearance in dog. Type of series: ADME, organism-based, Canis lupus familiaris. The settings on record: in vivo.

The source made the active and inactive calls. No cut-off for these calls is given here.

Metabotropic glutamate receptor 5, sequence (P41594 whole entry): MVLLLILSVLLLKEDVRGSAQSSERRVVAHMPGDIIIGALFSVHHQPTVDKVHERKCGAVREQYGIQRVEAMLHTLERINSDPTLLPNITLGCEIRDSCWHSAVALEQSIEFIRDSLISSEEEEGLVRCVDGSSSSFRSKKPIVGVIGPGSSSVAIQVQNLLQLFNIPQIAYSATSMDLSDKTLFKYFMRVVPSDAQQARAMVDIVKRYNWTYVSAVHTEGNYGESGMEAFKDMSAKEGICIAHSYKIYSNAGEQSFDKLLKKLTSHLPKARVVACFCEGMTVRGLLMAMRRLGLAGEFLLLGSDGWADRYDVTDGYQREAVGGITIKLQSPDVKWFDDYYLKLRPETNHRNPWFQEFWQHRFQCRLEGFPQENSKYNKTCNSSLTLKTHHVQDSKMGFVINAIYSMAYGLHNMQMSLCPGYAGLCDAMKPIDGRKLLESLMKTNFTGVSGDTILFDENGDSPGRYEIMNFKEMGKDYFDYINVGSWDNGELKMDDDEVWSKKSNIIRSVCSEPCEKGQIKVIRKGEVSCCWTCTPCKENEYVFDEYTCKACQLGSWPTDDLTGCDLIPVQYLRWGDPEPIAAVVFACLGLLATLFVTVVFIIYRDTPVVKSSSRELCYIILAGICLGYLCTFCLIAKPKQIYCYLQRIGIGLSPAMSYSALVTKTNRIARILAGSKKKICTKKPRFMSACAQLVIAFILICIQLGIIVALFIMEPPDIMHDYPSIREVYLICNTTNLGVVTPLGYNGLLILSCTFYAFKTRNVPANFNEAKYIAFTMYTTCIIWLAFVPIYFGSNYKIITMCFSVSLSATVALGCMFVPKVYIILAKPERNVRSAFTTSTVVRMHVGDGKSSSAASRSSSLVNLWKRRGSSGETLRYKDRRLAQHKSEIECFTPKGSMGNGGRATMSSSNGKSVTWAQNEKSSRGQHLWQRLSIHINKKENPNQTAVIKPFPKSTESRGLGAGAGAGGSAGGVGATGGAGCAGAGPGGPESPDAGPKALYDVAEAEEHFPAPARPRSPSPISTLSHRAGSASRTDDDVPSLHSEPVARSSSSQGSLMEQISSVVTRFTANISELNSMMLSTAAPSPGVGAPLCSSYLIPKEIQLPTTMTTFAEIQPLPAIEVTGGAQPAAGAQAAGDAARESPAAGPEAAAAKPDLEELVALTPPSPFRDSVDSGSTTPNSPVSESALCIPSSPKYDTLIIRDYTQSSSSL
Metabotropic glutamate receptor 1 (Homo sapiens), sequence (Q13255 19-1194 limits assumed): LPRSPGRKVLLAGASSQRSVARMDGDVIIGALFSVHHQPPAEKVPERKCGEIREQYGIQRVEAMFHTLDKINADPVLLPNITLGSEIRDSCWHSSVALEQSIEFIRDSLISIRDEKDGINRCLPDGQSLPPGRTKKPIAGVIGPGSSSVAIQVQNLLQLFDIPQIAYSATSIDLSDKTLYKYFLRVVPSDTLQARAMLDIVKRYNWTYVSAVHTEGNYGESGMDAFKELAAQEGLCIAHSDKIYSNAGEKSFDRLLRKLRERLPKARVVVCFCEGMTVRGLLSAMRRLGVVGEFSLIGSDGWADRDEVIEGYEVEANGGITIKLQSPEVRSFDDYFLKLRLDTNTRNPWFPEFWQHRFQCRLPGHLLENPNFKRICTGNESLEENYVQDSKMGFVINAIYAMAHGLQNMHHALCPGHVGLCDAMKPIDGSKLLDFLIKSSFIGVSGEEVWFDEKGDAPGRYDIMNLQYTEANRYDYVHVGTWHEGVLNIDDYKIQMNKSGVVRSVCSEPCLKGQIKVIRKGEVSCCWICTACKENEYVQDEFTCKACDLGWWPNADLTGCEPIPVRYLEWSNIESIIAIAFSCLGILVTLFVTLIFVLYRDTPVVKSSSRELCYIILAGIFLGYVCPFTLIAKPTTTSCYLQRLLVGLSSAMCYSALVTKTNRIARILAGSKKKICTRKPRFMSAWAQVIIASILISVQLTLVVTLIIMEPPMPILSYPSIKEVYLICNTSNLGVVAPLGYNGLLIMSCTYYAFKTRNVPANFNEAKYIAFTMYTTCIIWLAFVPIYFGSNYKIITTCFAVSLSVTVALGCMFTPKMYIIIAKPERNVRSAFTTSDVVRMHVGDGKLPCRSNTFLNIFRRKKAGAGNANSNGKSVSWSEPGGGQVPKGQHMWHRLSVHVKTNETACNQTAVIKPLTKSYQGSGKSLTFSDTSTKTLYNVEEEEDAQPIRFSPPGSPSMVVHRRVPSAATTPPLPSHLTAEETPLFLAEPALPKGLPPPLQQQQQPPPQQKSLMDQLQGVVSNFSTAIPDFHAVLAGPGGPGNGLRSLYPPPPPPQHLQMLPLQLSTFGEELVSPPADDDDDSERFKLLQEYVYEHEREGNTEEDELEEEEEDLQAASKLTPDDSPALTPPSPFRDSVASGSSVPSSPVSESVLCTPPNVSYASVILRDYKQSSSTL
Metabotropic glutamate receptor 8 (Homo sapiens), sequence (O00222 whole entry): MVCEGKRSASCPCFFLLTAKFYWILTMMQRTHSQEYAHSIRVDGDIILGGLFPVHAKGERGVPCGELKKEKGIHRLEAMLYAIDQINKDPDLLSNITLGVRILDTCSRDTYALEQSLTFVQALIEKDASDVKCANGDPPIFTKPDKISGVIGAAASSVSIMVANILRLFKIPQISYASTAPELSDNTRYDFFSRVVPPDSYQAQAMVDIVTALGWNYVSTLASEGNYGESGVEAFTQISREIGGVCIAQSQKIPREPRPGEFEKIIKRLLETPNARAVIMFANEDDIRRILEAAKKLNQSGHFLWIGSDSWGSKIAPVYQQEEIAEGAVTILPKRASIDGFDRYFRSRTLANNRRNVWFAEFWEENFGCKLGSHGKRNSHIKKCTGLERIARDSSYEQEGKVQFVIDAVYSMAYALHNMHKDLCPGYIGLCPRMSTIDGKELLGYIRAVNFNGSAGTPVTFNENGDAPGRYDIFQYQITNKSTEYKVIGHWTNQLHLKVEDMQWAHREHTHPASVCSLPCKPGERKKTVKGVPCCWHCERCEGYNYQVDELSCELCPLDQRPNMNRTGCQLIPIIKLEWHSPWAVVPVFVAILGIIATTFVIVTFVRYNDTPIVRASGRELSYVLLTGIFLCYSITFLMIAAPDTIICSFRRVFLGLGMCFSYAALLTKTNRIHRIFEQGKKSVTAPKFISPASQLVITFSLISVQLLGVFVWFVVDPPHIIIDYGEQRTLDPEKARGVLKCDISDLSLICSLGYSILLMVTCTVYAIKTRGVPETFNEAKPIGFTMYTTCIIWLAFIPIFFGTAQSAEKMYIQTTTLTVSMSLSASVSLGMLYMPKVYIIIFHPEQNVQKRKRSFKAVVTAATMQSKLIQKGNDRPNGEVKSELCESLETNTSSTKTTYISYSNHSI

On to `Cc1cccc(C#CCCc2ccccc2)n1`, for which the 50% inhibitory concentration (IC50) in [1] is 78 nM. Further, the outcome in series [2], in series [3] and in [4] was inactive.

Take `Cc1cccc(C#CCNc2ccccc2)n1`: in [1], the IC50 was determined as 223 nM.

For `Cc1cccc(C#CCOc2cccc(Cl)c2)n1`, the outcome in series [5] was inactive.

As to `Cc1cccc(C#CCNc2cccc(Cl)c2)n1`, the IC50 in series [1] came out at 174 nM. The result in series [5] was inactive.

With `Cc1cccc(C#CCC(C)c2ccccc2)n1` (configuration not stated), the IC50 in [1] was found to be 59 nM.

With `Cc1cccc(C#CC(C)Oc2cccc(Cl)c2)n1` (configuration not stated), the IC50 in series [1] is 281 nM. In addition, in series [5], the result was inactive.

As to `Cc1cccc(C#Cc2cc3ccccc3s2)n1`, the concentration for half-maximal inhibition (IC50) in series [1] was found to be 306 nM.

In the case of `Cc1cccc(C#CCN(C)c2ccccc2)n1`, in series [1], the IC50 worked out at 6730 nM.

For `Cc1cccc(C#CCNC(=O)c2cccc(Cl)c2)n1`, the half-inhibitory concentration (IC50) in [1] turned out to be 2610 nM.

With `Cc1cccc(C#CCCCc2ccccc2)n1`, the 50% inhibitory concentration (IC50) in [1] stood at 258 nM.

Consider `Cc1cccc(C#CCCc2cccc(Cl)c2)n1`, for which, in series [6], the Activity was 31%. In series [1], the concentration for half-maximal inhibition (IC50) came out at 5 nM. Moreover, the Vd in series [7] was 3.2 L/kg. In addition, the outcome in series [2], in series [3], in series [5] and in series [4] was inactive. The compound further gave a half-life in [8] of 2 h. In series [9], the microsomal CLint was 197 µL/min/mg. This compound returned a clearance in [10] of 66 mL/min/kg.

In the case of `Cc1cccc(C#CC(C)Nc2cccc(Cl)c2)n1` (configuration not stated), in series [1], the concentration for half-maximal inhibition (IC50) is 709 nM. Besides, the result in series [5] was inactive.

For the compound `Cc1cccc(C#CC(=O)Nc2ccccc2)n1`, the IC50 in [1] is above 10000 nM.

Consider `Cc1cccc(C#CCSc2ccccc2)n1`, for which the half-maximal inhibitory concentration (IC50) in [1] was found to be 589 nM.

For `Cc1cccc(C#CC(C)Sc2cccc(Cl)c2)n1` (configuration not stated), the half-inhibitory concentration (IC50) in series [1] is 118 nM. For the same compound, in [5], the outcome was inactive.

On to `Cc1cccc(C#CC(Sc2cccc(Cl)c2)C(C)C)n1` (configuration not stated), for which the IC50 in [1] turned out to be 461 nM.

For the compound `Cc1cccc(C#CC[S+]([O-])c2ccccc2)n1` (configuration not stated), in series [1], the IC50 is above 10000 nM.

As to `Cc1cccc(C#CCSc2cccc(Cl)c2)n1`, the 50% inhibitory concentration (IC50) in [1] is 43 nM. Besides, the outcome in series [5] was inactive.

Consider `CCC(C#Cc1cccc(C)n1)Sc1cccc(Cl)c1` (configuration not stated), for which the concentration for half-maximal inhibition (IC50) in series [1] turned out to be 862 nM.

As for `Cc1cccc(C#CCNC(=O)Nc2cccc(Cl)c2)n1`, in [1], the IC50 was above 10000 nM.

(Values after ChEMBL document CHEMBL1149355, “Structure-activity relationships for the linker in a series of pyridinyl-alkynes that are antagonists of the metabotropic glutamate receptor 5 (mGluR5)” (Bioorg Med Chem Lett, 2006).)
